The NIST ThermoML archive (doi:10.1021/acs.jced.5b00694)
Numbers after ± are expanded uncertainties. One block for each compound: values may come before it.

Columns and labels:
[1] = xn = mol fraction of the nth substance listed; details: 101 kPa, Liquid; for viscosity: 297.85 K, Cone and plate viscometry; for mass density: 298.15 K, Vibrating tube method
[2] = 297.85 K; 101 kPa; Liquid; Cone and plate viscometry

viscosity ([1]; x2 = 0.25): 356 ± 43 mPa·s | viscosity ([1]; x2 = 0.5): 146 ± 16 mPa·s | viscosity ([1]; x2 = 0.6): 97 ± 10 mPa·s | viscosity ([1]; x2 = 0.74): 48 ± 4.9 mPa·s | viscosity ([1]; x2 = 0.8): 35.3 ± 3.6 mPa·s | viscosity ([1]; x2 = 0.91): 14.4 ± 1.4 mPa·s | mass density ([1]; x2 = 0.25): 944 ± 1.2 kg/m3 | mass density ([1]; x2 = 0.32): 945.2 ± 1.1 kg/m3 | mass density ([1]; x2 = 0.5): 948 ± 1.2 kg/m3 | mass density ([1]; x2 = 0.6): 950.4 ± 1.4 kg/m3 | mass density ([1]; x2 = 0.74): 955.5 ± 1 kg/m3 | mass density ([1]; x2 = 0.8): 959.2 ± 0.9 kg/m3 | mass density ([1]; x2 = 0.91): 974.1 ± 0.7 kg/m3
Structure (SMILES): CCCC[P+](CCCC)(CCCC)CCCC.O=C[O-] [tetrabutylphosphonium formate] + O

viscosity [2]: 0.9 ± 0.02 mPa·s
Structure (SMILES): O [water]

viscosity ([1]; x1 = 1): 0.9 ± 0.09 mPa·s | mass density ([1]; x1 = 1): 996.8 ± 0.6 kg/m3
Structure (SMILES): O [water] + CCCC[P+](CCCC)(CCCC)CCCC.O=C[O-]
